Test results taken from PMC6337671, “Simultaneous Determination of Five Phenolic Acids and Four Flavonoid Glycosides in Rat Plasma Using HPLC-MS/MS and Its Application to a Pharmacokinetic Study after a Single Intravenous Administration of Kudiezi Injection” (Molecules, 2018).
Read-outs that look alike come from different tables or passages of the source.

Legend:
[1] = Stability of the nine components in rat plasma QC samples (auto-sampler, freeze-thaw, long-term); assay type: physicochemical; conditions: n = 5; for 6 h in Auto-Sample, RE: extracted rat plasma; for Freeze-Thaw Stability (Three Cycles), RE / Long-Term Stability (−80 °C, 14 Days), RE: rat plasma
Description: The stability of the nine components in rat plasma was investigated under a variety of storage and process conditions. Table 4 summarizes the results of post-preparation (The QC samples were kept in the auto-sampler for 6 h), freeze and thaw and long-term (at −80 °C for 14 days) stability experiments.
Stability of the nine components were assessed under the condition of placing extracted plasma samples in auto-sampler for 6 h, as well as placing plasma samples within freeze-thaw three cycles and at −80 °C for 14 days. LQC, MQC and HQC samples with five replicates at each level were kept at the above conditions and analyzed against freshly prepared calibrators as the reference.

[2] = Pharmacokinetic study in rats after a single intravenous administration of concentrated Kudiezi injection (HPLC-MS/MS of plasma); assay type: in vivo, Sprague-Dawley rats; conditions: single i.v. 3.6 mL/kg of 15 times concentrated KI, mean ± SD; for MRT last: n = 5, read-out: MRT0-t; for MRT inf: n = 5, read-out: MRT0-∞
Description: Eight male Sprague-Dawley rats (200 ± 20 g) were obtained from Laboratory Animal Center of Fujian Medical University (Fuzhou, China). The animal studies were conducted in accordance with the Guide for the Care and Use of Laboratory Animals published by the USA National Institutes of Health (NIH Publication No. 85-23, revised 1996) and were approved by the Animal Ethic Review Committee of Fujian Medical University (Fuzhou, China). The rats were housed in rat cages (48 × 29 × 18 cm^3), in a unidirectional airflow room at a temperature of 22 ± 2 °C, a relative humidity of 40–70% and a 12 h light/dark cycle. They were fed with freely available commercial food and filtered tap water, and fasted with free access to water for 12 h before the experiments. Three of these rats were selected randomly as blank group with the above mentioned feeding conditions and without administration of drug, and after 24 h from the beginning of the experiment, their blood was collected up exhaustively from abdominal aorta to provide blank plasma for methodological validation. […] All rats were acclimated to the facilities and environment for 7 days before the experiments.
After administration, the rat tail was carefully cleaned with alcohol soaked cotton balls around the injection site to remove the residual drug. Blood was collected from the cut-tail before dosing and at the following time points: 2.5, 5, 10, 15, 20, 30, 45 min and 1, 2, 3, 4, 6, 8, 12 and 24 h after dosing. Plasma was isolated from the blood samples by centrifugation and then stored at −80 °C until analysis.
Noncompartmental pharmacokinetic parameters were calculated by DAS 3.0 software (Version DAS 3.2.8, Chinese Pharmacologic Society, Beijing, China). All the results are expressed as mean ± SD. A single-tailed Student’s t test was performed in the work.

[3] = tested on: Mas-related G protein coupled receptor X2; set-up: method as in PMID 30048896; conditions: cited from earlier work
[4] = HQC spiked 2000 ng/mL (4000 ng/mL for II)
[5] = LQC spiked 15 ng/mL (30 ng/mL for II)
[6] = MQC spiked 500 ng/mL (1000 ng/mL for II)
[7] = male, Sprague-Dawley, rat, plasma, iv, 3.6 mL/kg, n = 5
[8] = male, Sprague-Dawley, rat, plasma, iv, 3.6 mL/kg, n = 5, read-out: AUC0-t
[9] = male, Sprague-Dawley, rat, plasma, iv, 3.6 mL/kg
[10] = male, Sprague-Dawley, rat, plasma, iv, 3.6 mL/kg, n = 5, read-out: Vd

6 h in Auto-Sample, RE [1, 4] [%]	6 h in Auto-Sample, RE [1, 5] [%]	6 h in Auto-Sample, RE [1, 6] [%]	Freeze-Thaw Stability (Three Cycles), RE [1, 4] [%]	Long-Term Stability (−80 °C, 14 Days), RE [1, 4] [%]	Freeze-Thaw Stability (Three Cycles), RE [1, 5] [%]	Long-Term Stability (−80 °C, 14 Days), RE [1, 5] [%]	Freeze-Thaw Stability (Three Cycles), RE [1, 6] [%]	Long-Term Stability (−80 °C, 14 Days), RE [1, 6] [%]	AUC(0-inf) [2, 7] [ng·h/mL]	clearance [2, 7] [mL/min/kg]	half-life [2, 7] [h]	AUC(0-t) [2, 8] [ng·h/mL]	MRT last [2, 9] [h]	MRT inf [2, 9] [h]	Vd [2, 10] [L/kg]	SMILES	identified as potential anaphylactoid component in KI [3]	further results
−11.88	−18.04	−14.10	−7.76	7.83	−13.66	−17.21	−2.10	−5.99	237 ± 43.6	34.7	6.09 ± 0.9	146 ± 40.8	4.09 ± 1.36	9.75 ± 1.7	17.9 ± 1.44	O=C(O)/C=C/c1ccc(O)c(O)c1 [Compound V, caffeic acid]	–	–
0.23	−14.11	−14.25	9.34	−5.24	−13.29	−0.68	−3.78	2.31	173 ± 15	128	0.23 ± 0.12	164 ± 8.34	0.2 ± 0.08	0.28 ± 0.15	2.51 ± 1.13	O=c1cc(-c2ccc(O)c(O)c2)oc2cc(O[C@@H]3O[C@H](CO[C@@H]4O[C@H](CO)[C@@H](O)[C@H](O)[C@H]4O)[C@@H](O)[C@H](O)[C@H]3O)cc(O)c12 [Compound VI, luteolin-7-O-β-D-gentiobioside]	–	–
−5.26	−15.03	−14.93	−2.66	−3.42	−16.92	−10.71	−8.67	−1.12	209 ± 75.7	49.8	2.22 ± 1.15	170 ± 55.7	2.29 ± 1.65	3.94 ± 2.71	8.22 ± 2.51	O=C(/C=C/c1ccc(O)c(O)c1)O[C@@H]1C[C@](O)(C(=O)O)C[C@@H](O)[C@H]1O [I, 5-caffeoylquinic acid]	–	–
3.63	−12.49	−9.25	3.72	−10.05	−17.36	1.30	2.66	−5.34	3080 ± 483	64.2	3.93 ± 0.47	2760 ± 400	3.84 ± 1.84	6.25 ± 2.83	22.1 ± 6.21	O=C(/C=C/c1ccc(O)c(O)c1)O[C@@H](C(=O)O)[C@@H](O)C(=O)O [II, caftaric acid]	–	–
−2.78	−7.40	−14.11	2.98	2.07	−18.29	−1.71	−5.77	−1.20	–	–	–	–	–	–	–	O=C(/C=C/c1ccc(O)c(O)c1)O[C@@H]1C[C@](O)(C(=O)O)C[C@@H](O)[C@H]1O [III, chlorogenic acid]	–	AUC0-∞ ([2]; rat plasma, n = 5): 199.84 ± 37.15 ng·h/mL; AUC(0-t) ([2]; rat plasma, n = 5): 155.43 ± 23.39 ng·h/mL; Cl ([2]; rat plasma, n = 5): 42.2 ± 7.17 mL/min/kg; MRT0-t ([2]; rat plasma, n = 5): 3.30 ± 0.99 h; MRT0-∞ ([2]; rat plasma, n = 5): 5.93 ± 1.39 h; Vd ([2]; rat plasma, n = 5): 11.96 ± 3.10 L/kg; t1/2 ([2]; rat plasma, n = 5): 3.36 ± 0.97 h
6.12	−14.16	−15.00	6.55	2.14	−14.73	−10.44	−0.15	−1.40	209 ± 54	30.2	2.92 ± 1.13	160 ± 39.4	2.72 ± 1.32	5.07 ± 2.17	7.03 ± 1.29	O=C(/C=C/c1ccc(O)c(O)c1)O[C@H]1[C@H](O)C[C@](O)(C(=O)O)C[C@H]1O [IV, 4-caffeoylquinic acid]	–	–
7.78	−13.77	−1.56	3.36	5.33	−13.08	−2.73	0.53	−0.28	56.1 ± 8.49	168	0.07 ± 0.01	55.7 ± 8.5	0.09 ± 0.01	0.09 ± 0.01	1 ± 0.24	O=C(O)[C@H]1O[C@@H](Oc2cc(O)c3c(=O)cc(-c4ccc(O)cc4)oc3c2)[C@H](O)[C@@H](O)[C@@H]1O [IX, apigenin-7-O-β-D-glucuronide]	potential anaphylactoid components	–
5.65	−7.74	−12.46	9.76	8.01	−10.80	−2.91	−1.08	−0.26	680 ± 109	95.5	0.66 ± 0.2	672 ± 107	0.25 ± 0.11	0.3 ± 0.12	5.3 ± 1.21	O=C(O)[C@H]1O[C@@H](Oc2cc(O)c3c(=O)cc(-c4ccc(O)c(O)c4)oc3c2)[C@H](O)[C@@H](O)[C@@H]1O [VII, luteolin-7-O-β-D-glucuronide]	potential anaphylactoid components	–
0.65	−12.91	−8.04	3.11	11.47	−11.91	−1.72	0.67	0.81	31 ± 2.09	138	0.13 ± 0.02	29.5 ± 2.38	0.09 ± 0.02	0.11 ± 0.02	1.51 ± 0.35	O=c1cc(-c2ccc(O)c(O)c2)oc2cc(O[C@@H]3O[C@H](CO)[C@@H](O)[C@H](O)[C@H]3O)cc(O)c12 [VIII, luteolin-7-O-β-D-glucoside]	potential anaphylactoid components	–
